Source: US20220332695A1, “UREA DERIVATIVES AS CB1 ALLOSTERIC MODULATORS” (RTI INTERNATIONAL, priority 2019, published 2022)
Converted amounts (≈) assume the structure as drawn. “And” between values parts separate entries of the source, which are not always exact repeats. Equal values may be shown once. “Also recorded” adds a separate entry of the source. Read-outs that look alike come from different tables or passages of the source.

Tests used:
[1] = tested on: MDCK-MDR1 cells; assay: Bidirectional MDCK-MDR1 permeability assay; type: in vitro ADME; conditions: for Papp A to B / Papp B to A: MDCK-MDR1, 10 μM test article
Procedure: (§1) Permeability Assessment. Bidirectional MDCK-MDR1 permeability assay was performed by Paraza Pharma Inc. (Montreal, Canada). MDCK-mdr1 cells at passage 5 were seeded onto permeable polycarbonate supports in 12-well Costar Transwell plates and allowed to grow and differentiate for 3 days. On day 3, culture medium (DMEM supplemented with 10% FBS) was removed from both sides of the transwell inserts and cells were rinsed with warm HBSS. After the rinse step, the chambers were filled with warm transport buffer (HBSS containing 10 mM HEPES, 0.25% BSA, pH 7.4) and the plates were incubated at 37° C. for 30 min prior to TEER (Trans Epithelial Electric Resistance) measurements.
(§2) The buffer in the donor chamber (apical side for A-to-B assay, basolateral side for B-to-A assay) was removed and replaced with the working solution (10 μM test article in transport buffer). The plates were then placed at 37° C. under light agitation. At designated time points (30, 60 and 90 min), an aliquot of transport buffer from the receiver chamber was removed and replenished with fresh transport buffer. Samples were quenched with ice-cold ACN containing internal standard and then centrifuged to pellet protein. Resulting supernatants are further diluted with 50/50 ACN/H2O (H2O only for Atenolol) and submitted for LC-MS/MS analysis. Reported apparent permeability (Papp) values were calculated from single determination.
(§3) Atenolol and propranolol were tested as low and […] permeability references.
(§4) The apparent permeability (Papp, measured in cm/s) of a compound is determined according to the following formula […]: […]
(§5) where dQ/dt is the net rate of appearance in the receiver compartment; A is the area of the Transwell measured in cm^2 (1.12 cm^2); Ci is the initial concentration of compound added to the donor chamber; and 60 is the conversion factor for minute to second.

[2] = Metabolic stability in rat liver microsomes; type: in vitro ADME; conditions: for half-life / Clearance: mean ± SD; for microsomal CLint: pH 7.4, mean ± SD, read-out: Clearance
Procedure: Metabolic stability assessment: Compounds were incubated with rat liver microsomes at 37° C. for a total of 45 minutes. The reaction was performed at pH 7.4 in 100 mM potassium phosphate buffer containing 0.5 mg/mL of rat liver microsomal protein. Phase I metabolism was assessed by adding NADPH to a final concentration of 1 mM and collecting samples at time points 0, 5, 15, 30 and 45 minutes. All collected samples were quenched 1:1 with ice-cold stop solution (1 μM labetalol and 1 μM glyburide in acetonitrile) and centrifuged to remove precipitated protein. Resulting supernatants were further diluted 1:4 with acetonitrile:water (1:1). Samples were analyzed by LC/MS/MS and calculations for half-life, and in-vitro clearance were accomplished using Microsoft Excel (2007).

[3] = Kinetic solubility assessment; type: physicochemical; conditions: phosphate buffer, 2 hours room temperature
Procedure: The solution was agitated on a VX-2500 multi-tube vortexer (VWR International, Radnor, Pa., United States of America) for 2 hours at room temperature. Following agitation, the sample was filtrated on a glass-fiber filter (1 μm) and the eluate was diluted 400-fold with a mixture of acetonitrile: water (1:1). On each experimental occasion, nicardipine and imipramine were assessed as reference compounds for low and high solubility, respectively. All samples were assessed in triplicate and analyzed by LC-MS/MS using electrospray ionization against standards prepared in the same matrix.

[4] = target: T1, mouse CB1R (Mus musculus, UniProt P47746); assay: [35S]GTPγS binding assay in mouse cerebellum membranes; type: biochemical
T1 construct: membranes (10 μg protein) from either ICR mouse cerebellum mice; from tissue; host or cells: cerebellum membranes of ICR mice
Procedure: (§6) [^35S]GTPγS Binding Assay: For receptor signaling, membranes (10 μg protein) from either ICR mouse cerebellum mice (6-8 weeks old; Enviga
(§7) Non-specific binding was determined by adding 30 μM unlabeled GTPyS. Concentration response curves for allosteric modulators were conducted in the presence of CP55,940 (100 nM or 1 μM) to calculate 1050 values.
(§8) For [^35S]GTPyS experiments, data were normalized to maximal CP55,940 (100 nM) stimulation in the absence of test compound (i.e., vehicle=100%).
Select compounds were evaluated in the CP55,940-induced [^35S]GTPyS binding assays using mouse cerebellum membrane at two CP55,940 concentrations, 100 nM and 1μM.

[5] = target: T2, hCB1R (Homo sapiens, UniProt P21554); assay: Real-time BRET CAMYEL cAMP assay in HEK293 cells expressing human CB1; type: cell-based; parameters: expressed in transfected cells; host or cells: HEK293 cells stably transfected with human CB1, transiently transfected with pcDNA3L-His-CAMYEL sensor; conditions: [CP] = 100 nM; forskolin-stimulated cAMP
Procedure: cAMP Assay: The cAMP assay was performed as previously described. […] Briefly, forskolin (FSK)-stimulated cyclic adenosine monophosphate (cAMP) production was measured in real-time using a transfected bioluminescence resonance energy transfer (BRET) cAMP sensor. The plasmid encodes a cAMP binding domain (Epac1) flanked by yellow fluorescent protein (YFP) and Renilla Luciferase (RLuc) assay, the latter of which can oxidize coelenterazine H and produce a photon as a byproduct. When cAMP is bound to the Epac1 domain, it separates RLuc and YFP so only Rluc emits a photon at a wavelength of 460 nm. When cAMP is not bound, RLuc can excite YFP, emitting light at wavelength 535 nm. A plate reader measures both wavelengths and their ratio, 460/535, is calculated to quantify cAMP levels where increases in the ratio indicate increases in cAMP. Human Embryonic Kidney 293 (HEK293) cells stably transfected with the human cannabinoid type-1 (C131) were maintained at 37° C. at 5% CO2 and seeded in 100 mM dishes for transfection. The next day, cells were given fresh growth media and transfected with 5 pg of pcDNA3L-His-CAMYEL using linear polyethyleneimine (25 kDa, Polysciences, Warrington, Pennsylvania, United States of America) in 1:6 DNA:PEI (ATCC, Manassas, Virginia, United States of America) ratio. The next day, cells were lifted using 1 mM EDTA in PBS and spun down at 200xg for 5 min. The supernatant was removed, and cells were resuspended in growth media and plated on poly-D-lysine (Sigma Aldrich, St. Louis, Missouri, United States of America) coated white 96 well plates at 60,000 cells per well, filling 2 columns of 8 wells each per plate, i.e. 8 samples in duplicate per plate (Perkin Elmer, Waltham, Massachusetts,
United States of America). The following day, media was removed, cells were rinsed with PBS and buffers/reagents/drugs added as following: At 0 min, 175 of stimulation buffer (5 mg/ml bovine serum albumin in HBSS including Ca^2+ and Mg^2+); at 10 min, 25 μL of allosteric modulators added; at 15 min: 25 μL coelenterazine added (5 μM final); at 25 min, 25 μL of forskolin (10 final) with or without CP55,940 (100 nM final) added. […] Ratio of 460/535 is calculated for each time point and plotted across time and area under the curve analysis is conducted for each replicate and averaged by condition/day where each day serves as an independent experiment. Data were calculated as %FSK using the formula [(sample-basal)/(forskolin-basal)×100]. IC50 values were calculated from these normalized concentration-response data using Prism 6 (Graphpad Software, San Diego, Calif., United States of America) using 3 parameter non-linear regression. Data are plotted as mean of at least N=3 independent experiments either normalized to forskolin (concentration response data) or the calculated 460/535 BRET ratio (time course data).

[6] = target: T2, hCB1R; assay: Intrinsic activity: basal [35S]GTPγS binding in the absence of CP55,940; type: biochemical; conditions: up to 10 μM
[7] = target: T2, hCB1R; assay: Calcium mobilization assay, antagonist mode against CP55,940; type: cell-based; parameters: expressed in transfected cells; host or cells: CHO-RD-HGA16 cells (parental line from Molecular Devices)
Procedure: Calcium Mobilization Assay: CHO-RD-HGA16 cells (Molecular Devices, San Jose, Calif., United States of America) stably expressing the human CB1 receptor were plated into 96-well black-walled assay plates at 25,000 cells/well in 100 pL of Ham's F12 (supplemented with 10% fetal bovine serum, 100 units of penicillin/streptomycin, and 100 µg/mL Normocin) and incubated overnight at 37° C., 5% CO2. Calcium 5 dye (Molecular Devices, San Jose, Calif., United States of America) was reconstituted according to the manufacturer's instructions. The reconstituted dye was diluted 1:40 in prewarmed (37° C.) assay buffer (1x HBSS, 20 mM HEPES, 2.5 mM probenecid, pH 7.4 at 37° C.). Growth medium was removed, and the cells were gently washed with 100 pL of prewarmed (37° C.) assay buffer. The cells were incubated for 45 min at 37° C., 5% CO2 in 200 pL of the diluted Calcium 5 dye solution. […] Serial dilutions of the test compounds were prepared at 10x the desired final concentration in 2.25% BSA/4.5% DMSO/4.5% EtOH/assay buffer. After the dye loading incubation period, the cells were pretreated with 25 pL of the test compound serial dilutions and incubated for 15 min at 37° C. After the pretreatment incubation period, the plate was read with a FLIPR Tetra (Molecular Devices, San Jose, Calif., United States of America). Calcium-mediated changes in fluorescence were monitored every 1 s over a 90 s time period, with the Tetra adding 25 pL of the CP55,940 EC80 concentration at the 10s time point (excitation/emission: 485/525 nm). Relative fluorescence units (RFU) were plotted against the log of compound concentrations. For agonist screens, the above procedure was followed except that cells were pretreated with 2.25% BSA/4.5% DMSO/4.5% EtOH/assay buffer and the Tetra added single concentration dilutions of the test compounds prepared at 10x the desired final concentration in 0.25% BSA/0.5% DMSO/0.5% EtOH/assay buffer. Test compound RFUs were compared to the CP55,940 Emax RFUs to generate % Emax values.
Data Analysis: For calcium mobilization experiments, data were fit to a three-parameter logistic curve to generate IC50 values (GraphPad Prism 6.0, Graphpad Software, San Diego, Calif., United States of America).

[8] = target: T2, hCB1R; assay: [35S]GTPγS binding assay in HEK cells stably expressing human CB1R; type: biochemical; parameters: expressed in transfected cells; host or cells: HEK (HEK293) cells, membranes; conditions: [CP] = 100 nM, mean (95% confidence interval), read-out: hCB1R [35S]GTPγS binding assay IC50
Procedure: as §6, §7, §8

[9] = tested on: locomotion in rats; assay: Locomotion in rats; conditions: rat, 10 mg/kg i.p.
Description: (§9) Locomotion is presented as total distance (in millimeters (mm)) versus time (in minutes) after administration. The effects of treatment with vehicle is also shown as a control.

[10] = tested on: P-gp (MDR1); assay: Bidirectional MDCK-MDR1 permeability assay; type: in vitro ADME; conditions: dog, pH 7.4; MDCK-MDR1, 10 μM test article
Procedure: as §1, §2, §3, §4, §5

[11] = tested on: cocaine-seeking behavior in rats; assay: Cocaine-induced reinstatement of extinguished cocaine-seeking behavior; type: in vivo, male Sprague-Dawley rats; conditions: rat, 10 mg/kg i.p. pretreatment
Procedure: In both graphs, the effect of treatment with vehicle (unfilled bars) is shown as a control. *p<0.05.
Adult male Sprague-Dawley rats (Harlan, Indianapolis, Ind., United States of America) weighing 280-300 g were used in the study. Animals were housed individually on a 12/12 hr light/dark cycle (behavioral experiments were conducted during the light period) with free access to water and food except during experimental sessions.
The reinstatement procedure has been previously described. See Jing et al., Drug Alcohol Depend. 2014, 143, 251-256; and Thorn et al., Neuropsychopharmacology 2014, 39, 2309-2316. Briefly, rats were surgically implanted with a chronic indwelling jugular catheter. […]
Data analyses: Data are expressed as mean ±S.E.M. Differences in active lever responding between the last extinction session and reinstatement session were determined with paired t tests (within subjects comparison). The effects of compounds 2 on reinstatement were analyzed by a one-way analysis of variance (ANOVA) followed by post hoc Bonferroni's test (between subjects comparison). The effects of compounds 34 on reinstatement was analyzed by Student's t test. […]

[12] = tested on: locomotion in rats; conditions: rat, in vivo, ip, 10 mg/kg
Description: as §9

[13] = aqueous buffer, kinetic from dmso stock
[14] = mouse cerebellum membrane, [CP] = 100 nM, read-out: mCB1R GTPγS IC50
[15] = mouse cerebellum membrane, [CP] = 1 uM, read-out: mCB1R GTPγS IC50
[16] = CHO cells expressing human CB1R, against CP55,940 (100 nM), mean ± SEM, read-out: hCB1R Calcium assay IC50
[17] = pH 7.4, NADPH, read-out: Half-life

T1 sequence (P47746 whole entry): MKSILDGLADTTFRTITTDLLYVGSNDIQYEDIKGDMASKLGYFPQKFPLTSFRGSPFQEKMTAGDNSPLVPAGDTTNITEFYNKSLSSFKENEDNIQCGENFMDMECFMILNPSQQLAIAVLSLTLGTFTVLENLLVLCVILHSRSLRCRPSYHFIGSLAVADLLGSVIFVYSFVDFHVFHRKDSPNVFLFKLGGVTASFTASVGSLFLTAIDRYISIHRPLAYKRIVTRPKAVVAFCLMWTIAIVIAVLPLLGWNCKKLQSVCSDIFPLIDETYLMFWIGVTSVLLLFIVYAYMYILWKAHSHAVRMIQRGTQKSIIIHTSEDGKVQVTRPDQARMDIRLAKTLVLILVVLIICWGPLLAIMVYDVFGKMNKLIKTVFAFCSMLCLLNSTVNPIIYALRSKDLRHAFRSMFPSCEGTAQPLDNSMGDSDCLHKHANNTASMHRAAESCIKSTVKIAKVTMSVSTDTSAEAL
T2 sequence (P21554 whole entry): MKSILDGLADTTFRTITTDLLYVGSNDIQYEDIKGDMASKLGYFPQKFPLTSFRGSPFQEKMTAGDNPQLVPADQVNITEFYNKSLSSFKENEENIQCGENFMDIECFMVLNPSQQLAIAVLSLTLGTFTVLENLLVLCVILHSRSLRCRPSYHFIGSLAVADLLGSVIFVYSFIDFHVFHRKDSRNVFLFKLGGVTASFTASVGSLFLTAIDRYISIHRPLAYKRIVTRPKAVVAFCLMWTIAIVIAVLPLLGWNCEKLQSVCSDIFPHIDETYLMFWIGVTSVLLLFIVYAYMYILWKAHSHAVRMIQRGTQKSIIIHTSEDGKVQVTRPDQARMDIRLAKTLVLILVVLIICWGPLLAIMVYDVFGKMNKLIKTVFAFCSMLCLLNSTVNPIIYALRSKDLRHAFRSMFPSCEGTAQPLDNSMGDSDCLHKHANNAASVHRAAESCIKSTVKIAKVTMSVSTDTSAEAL

SMILES	Papp A to B [1]	Papp B to A [1]	Clearance [2] [µL/min/mg]	solubility at 2 h [3, 13] [µM]	IC50 [4, 14]	IC50 [4, 15]	IC50 [5] [nM]	inverse agonism (in words) [6]	IC50 [7, 16] [nM]	IC50 [8] [nM]	half-life [2, 17] [min]	microsomal CLint [2] [µL/min/mg]	also measured
O=C(Nc1ccc(Cl)cc1)Nc1cccc(-c2cccc(N3CCCC3)n2)c1 [Compound 2, reference compound]	2.6 ± 0 ×10^−6 cm/s	2.2 ± 0.1 ×10^−6 cm/s	113.7 ± 34.4	< 0.5	244 nM	127 nM	–	–	–	–	–	–	half-life ([2]; NADPH): 13 min and 13.4 ± 4.1 min
O=C(Nc1ccc(Cl)cc1)Nc1ccc(-c2ccccc2)s1 [Compound 11, 1-(4-Chlorophenyl)-3-(5-phenylthiophen-2-yl)urea]	1.6 ± 0.1 ×10^−6 cm/s	1.1 ± 0.4 ×10^−6 cm/s	22.2 ± 6.5	–	63 nM	–	1760	some degree of inverse agonism; also recorded: very little inverse agonism	7	524	–	–	Efflux BA/AB ([1]; MDCK-MDR1): 0.7; effect on locomotion [9]: significant reduction of locomotion; solubility at 2 h [3]: 1.5 µM (≈ 0.493 µg/mL)
O=C(Nc1ccc(Cl)cc1)Nc1ncc(-c2ccccc2)s1 [Compound 14, 1-(4-Chlorophenyl)-3-(5-phenyl-1,3-thiazol-2-yl)urea]	–	–	–	–	–	–	–	some degree of inverse agonism	79 ± 10	604	–	–	–
O=C(Nc1ccc(Cl)cc1)Nc1ccc(-c2ccc(F)cc2F)s1 [Compound 20, 1-(4-Chlorophenyl)-3-[5-(2,4-difluorophenyl)thiophen-2-yl]urea]	–	–	–	< 0.5	138 nM	48 nM	2290	–	22 ± 4	84	72	19.3 ± 1.6	–
O=C(Nc1ccc(Cl)cc1)Nc1ccc(-c2ccncc2)s1 [Compound 35, 1-(4-Chlorophenyl)-3-[5-(pyridin-4-yl)thiophen-2-yl]urea]	–	–	–	–	287 nM and 204 nM	129 nM and 120 nM	1800	some degree of inverse agonism	79 ± 13	298	–	–	–
O=C(NCCc1cccc(Cl)c1)Nc1ccc(Cl)cc1 [Compound 68, 3-(4-Chlorophenyl)1-[2-(3-chlorophenyl)ethyl]urea]	–	–	–	< 0.5	–	–	–	–	–	–	9.6	144 ± 8.4	Papp A→B at 90 min, 10 µM [10]: > 15 ×10⁻⁶ cm/s; Papp B→A at 90 min, 10 µM [10]: > 15 ×10⁻⁶ cm/s; effect on cocaine-induced reinstatement of cocaine-seeking behavior [11]: good in vivo efficacy; also recorded: attenuated cocaine-induced reinstatement of cocaine-seeking behavior; effect on locomotion [12]: did not affect locomotion; IC50 [7]: 30 ± 4 nM; IC50 ([4]; Tables 4-6, CP55,940 concentration not stated, mean (95% confidence interval), read-out: mCB1R [35S]GTPγS binding assay IC50): 561 nM
